Assay results published in ChEMBL document CHEMBL1123871, “Methotrexate analogues. 30. Dihydrofolate reductase inhibition and in vitro tumor cell growth inhibition by N epsilon-(haloacetyl)-L-lysine and N delta-(haloacetyl)-L-ornithine analogues and an acivicin analogue of methotrexate” (J Med Chem, 1987).

Experiments:
L1210 [1] = experiment: Inhibition of L1210 cultured murine leukemia cell growth; format: functional, cell-based; conditions: Mus musculus
Dihydrofolate reductase = target: T1, Dihydrofolate reductase (Mus musculus, UniProt P00375)
T1 sequence (P00375 whole entry): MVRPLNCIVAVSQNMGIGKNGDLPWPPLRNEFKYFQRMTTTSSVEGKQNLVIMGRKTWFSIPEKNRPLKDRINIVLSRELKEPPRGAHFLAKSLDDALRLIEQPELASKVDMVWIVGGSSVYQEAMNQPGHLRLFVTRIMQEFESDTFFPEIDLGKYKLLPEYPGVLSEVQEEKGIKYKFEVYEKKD
Description: Inhibition of dihydrofolate reductase(DHFR) from L1210/R81 cells

[2] = Fold resistance calculated by dividing the IC50(L1210/R81) by the IC50(L1210)
L1210 [3] = experiment: Inhibition of L1210/R81 murine leukemia cell growth; format: functional, cell-based; conditions: Mus musculus

Row | IC50 (L1210 [1]) [nM] | IC50 (Dihydrofolate reductase) [nM] | Resistance [2] | IC50 (L1210 [3]) [nM] | Structure (SMILES)
1 | 96 | 72 | 2500 | 240 | CN(Cc1cnc2nc(N)nc(N)c2n1)c1ccc(C(=O)NC(CCCCNC(=O)CBr)C(=O)O)cc1 (stereo not drawn)
2 | 62 | 32 | 1700 | 105 | CN(Cc1cnc2nc(N)nc(N)c2n1)c1ccc(C(=O)NC(CCCNC(=O)CCl)C(=O)O)cc1 (stereo not drawn)
3 | 126 | 46 | 1200 | 155 | CN(Cc1cnc2nc(N)nc(N)c2n1)c1ccc(C(=O)NC(CCCNC(=O)CBr)C(=O)O)cc1 (stereo not drawn)
4 | 33 | 32 | 2800 | 93 | CN(Cc1cnc2nc(N)nc(N)c2n1)c1ccc(C(=O)NC(CCCCNC(=O)CCl)C(=O)O)cc1 (stereo not drawn)

Row | Structure (SMILES) | IC50 (L1210 [1]) [nM] | IC50 (Dihydrofolate reductase) [nM] | Resistance [2] | IC50 (L1210 [3]) [nM]
5 | CN(Cc1cnc2nc(N)nc(N)c2n1)c1ccc(C(=O)N[C@@H](CCC(=O)O)C(=O)O)cc1 [METHOTREXATE] | 5 |  | 44000 | 
